Results: patent US6680340B2, “Anti-hypercholesterolemic drug combination” (Merck & Co., Inc., priority 2000, dated 2004)

Legend:
Serum cholesterol = Serum cholesterol lowering in dogs dosed 15 days with fenofibrate, CGS23425 or the combination; type: in vivo
Description: Dogs were administered 50 mg/kg/day fenofibrate alone, 10 μg/kg/day CGS23425 alone, or the combination of 50 mg/kg/day fenofibrate +10 μg/kg/day CGS23425 for a period of 15 days. Cholesterol lowering was measured on treatment days 6, 8, 10, 13, 14, and 15.

Serum total cholesterol = Serum total cholesterol lowering in rats dosed 9 days with CGS23425 in diet with and without fenofibrate
Description: Male Sprague-Dawley rats (wt 125-150 g, 10 per group) were acclimated for one week with a normal chow (Purina #5001 powder) and had free access to drinking water. The animals, with increased weight to about 200 to 250 grams, were dosed 9 days with various doses of CGS23425 (0, 0.005, 0.05 and 0.5 ppm in diet, where total diet consumption was about 10 to 15 grams per day) with and without the presence of 25 mg/kg of body weight of fenofibrate given via oral gavage once a day. After the dosing period, the animals were fasted for 18 hours and euthanized and the blood was withdrawn via cardiac puncture.

With CC(C)OC(=O)C(C)(C)Oc1ccc(C(=O)c2ccc(Cl)cc2)cc1 [Fenofibrate, fenofibrate] the “Serum cholesterol lowering in dogs (% reduction)” value (Serum cholesterol; fenofibrate 50 mg/kg/day alone, treatment day 6) was 0.1 ± 2.5 % reduction, the “Serum cholesterol lowering in dogs (% reduction)” value (Serum cholesterol; fenofibrate 50 mg/kg/day alone, treatment day 8) was 3.5 ± 1.8 % reduction and the “Serum cholesterol lowering in dogs (% reduction)” value (Serum cholesterol; fenofibrate 50 mg/kg/day alone, treatment day 10) was 8.6 ± 3.4 % reduction. The “Serum cholesterol lowering in dogs (% reduction)” value (Serum cholesterol; fenofibrate 50 mg/kg/day alone, treatment day 13) was 12.1 ± 4.3 % reduction, the “Serum cholesterol lowering in dogs (% reduction)” value (Serum cholesterol; fenofibrate 50 mg/kg/day alone, treatment day 14) was 12.4 ± 7.5 % reduction and the “Serum cholesterol lowering in dogs (% reduction)” value (Serum cholesterol; fenofibrate 50 mg/kg/day alone, treatment day 15) was 14.3 ± 4.0 % reduction. The “Serum cholesterol lowering in rats (% reduction)” value (Serum total cholesterol; fenofibrate 25 mg/kg oral gavage once a day alone (CGS23425 0 ppm), fasted 18 hours) was 12 ± 5 % reduction and the “Serum cholesterol lowering in rats (% reduction)” value (Serum total cholesterol; fenofibrate 25 mg/kg oral gavage once a day alone (CGS23425 0 ppm), fasted 18 hours, listed as fenofibrate) was 12±5 % reduction.

With Cc1cc(NC(=O)C(=O)O)cc(C)c1Oc1ccc(O)c(C(C)C)c1 [CGS23425, N-[3,5-dimethyl-4-(4′-hydroxy-3′-isopropylphenoxy)-phenyl]-oxamic acid] the “Serum cholesterol lowering in dogs (% reduction)” value (Serum cholesterol; CGS23425 10 μg/kg/day alone, treatment day 6) was 13 ± 1.2 % reduction, the “Serum cholesterol lowering in dogs (% reduction)” value (Serum cholesterol; CGS23425 10 μg/kg/day alone, treatment day 8) was 15.4 ± 2.3 % reduction and the “Serum cholesterol lowering in dogs (% reduction)” value (Serum cholesterol; CGS23425 10 μg/kg/day alone, treatment day 10) was 18.4 ± 3.0 % reduction. The “Serum cholesterol lowering in dogs (% reduction)” value (Serum cholesterol; CGS23425 10 μg/kg/day alone, treatment day 13) was 22.9 ± 2.5 % reduction, the “Serum cholesterol lowering in dogs (% reduction)” value (Serum cholesterol; CGS23425 10 μg/kg/day alone, treatment day 14) was 21.1 ± 3.9 % reduction and the “Serum cholesterol lowering in dogs (% reduction)” value (Serum cholesterol; CGS23425 10 μg/kg/day alone, treatment day 15) was 24.3 ± 1.7 % reduction. The “Serum cholesterol lowering in rats (% reduction)” value (Serum total cholesterol; CGS23425 0.005 ppm in diet alone (fenofibrate 0 mg/kg)) was 4 ± 6 % reduction, the “Serum cholesterol lowering in rats (% reduction)” value (Serum total cholesterol; CGS23425 0.05 ppm in diet alone (fenofibrate 0 mg/kg)) was 9±4 % reduction and the “Serum cholesterol lowering in rats (% reduction)” value (Serum total cholesterol; CGS23425 0.5 ppm in diet alone (fenofibrate 0 mg/kg)) was 3 ± 7 % reduction.
